For series [1] the following is noted: cited from earlier work.
A short description of series [2]: Biodistribution of DRV administered via intravenous. The note with it: Balb/c mice; for DRV accumulation cumulatively in the brain / DRV uptake cumulative in liver / DRV uptake cumulative in plasma / DRV accumulation cumulatively for all time points in plasma / DRV accumulation cumulatively for all time points in the brain / DRV concentration in liver (cumulative): cumulative 1, 3, 6, 12 h, mean ± S.E.M.; for concentration at 1 h: both, Balb/c, mouse, brain, other: intranasal (IN), DRV concentration in brain (Mean). The format is in vivo.

The values that follow come from publication PMC9747527 (Biochemistry and Biophysics Reports, 2022).

Each structure is given as a SMILES string. Values joined by “and” are separate entries in the source; they are usually repeats but may differ in a detail not shown here. Identical values can stand only once.

Turning to `CN(C)CCCN=C(N)c1ccc(C(N)=NCCCN(C)C)cc1` [DB213], in series [1], the “Brain to plasma ratio, IN compared to IV administration” value is “significantly high tissue distribution in the brain to plasma ratio”.
For `CC(C)CN(C[C@@H](O)[C@H](Cc1ccccc1)NC(=O)O[C@H]1CO[C@H]2OCC[C@H]21)S(=O)(=O)c1ccc(N)cc1` [DRV, Darunavir], the “Increase of DRV accumulation in the brain, IN compared to IV delivery” value in series [2] (2.5 mg/kg, 1 h, p ≤ 0.05) was roughly 3 fold; in series [2] (2.5 mg/kg, 3 h, p ≤ 0.05), roughly 2 fold; in series [2] (25 mg/kg, 1 h, p ≤ 0.001), roughly 2 fold. Further, the “DRV accumulation cumulatively in the brain” value in series [2] (2.5 mg/kg, IN) is 12.08 ± 2.91 ng/g and ~12 ng/g; in series [2] (2.5 mg/kg, IV) it was 6.91 ± 1.69 ng/g. For the same molecule, the “DRV uptake cumulative in liver” value in series [2] (2.5 mg/kg, IN) worked out at 29.27 ± 4.17 ng/g; in series [2] (2.5 mg/kg, IV), 118.39 ± 28.13 ng/g. Further, the “DRV uptake cumulative in plasma” value in series [2] (2.5 mg/kg, IN) is reported as 19.91 ± 12.65 ng/g; in series [2] (2.5 mg/kg, IV), 81.37 ± 22.04 ng/g. For the same molecule, the “Lung DRV concentration, IN compared to IV” value in series [2] (2.5 mg/kg, individual or cumulative time points) is on record as “did not significantly increase”. The “DRV accumulation cumulatively for all time points in plasma” value in series [2] (25 mg/kg, IN) is given as 320.56 ± 40.04 ng/g; in series [2] (25 mg/kg, IV), 899.12 ± 136.93 ng/g. Also, the “DRV accumulation cumulatively for all time points in the brain” value in series [2] (25 mg/kg, IN) is 19.74 ± 1.80 ng/g and ~20 ng/g; in series [2] (25 mg/kg, IV), 12.84 ± 2.88 ng/g. Besides, the “DRV concentration in liver (cumulative)” value in series [2] (25 mg/kg, IN) was 833.83 ± 242.4 ng/g; in series [2] (25 mg/kg, IV), 1085.18 ± 255.0 ng/g. Also, the concentration at 1 h was roughly 5 ng/g in series [2] (2.5 mg/kg, 2.5 mg/kg, IN, 1 h) and roughly 12 ng/g in series [2] (25 mg/kg, 25 mg/kg, IN, 1 h).
